Data reported in patent US20190315814A1, “LANTIBIOTIC VARIANTS AND USES THEREOF” (priority 2016, published 2019).
Converted amounts (≈) assume the structure as drawn. Where two headings read alike, the source gives them in different places. Where a SMILES comes first, the peptide text is derived from it.

Tests used:
[1] = simulated gi fluid
[2] = test system: VRE Enterococcus faecalis; conditions: VRE
[3] = test system: VRE Enterococcus faecium
[4] = test system: Clostridium scindens (ATCC 35704)
[5] = test system: Lactobacillus acidophilus (CCUG 4356)
[6] = test system: Peptostreptococcus anaerobius (ATCC 27337)
[7] = test system: Eggerthella lenta (ATCC 27337)
[8] = test system: Heliobacter pylori
[9] = in vitro
Experimental: Assay incubation conditions included […] simulated gastric fluid (SGF, USP 39 Test Solution; 2 g/L NaCl, 7 mL/L glacial HCl, pH 1.4) containing 1.75 mg/mL Pepsin (3200-4500 U/mg) mixed with 7.5 μL of 10 mg/mL variant (or positive control, NH2-Met-Arg-Phe-Ala-OH, MRFA, CAS#67368-29-0) for a final concentration of 300 μg/ml variant in a microfuge tube. Samples were incubated at 37° C. and analyzed using HPLC or LC-MS for loss of substrate. The percent remaining, elimination rate constant (Ke), and in vitro protein half-lives were calculated. A control of SGF without enzyme was also run and analyzed in the same manner for each variant.

[10] = FaSSIF + 1% pancreatin + 3 μg/ml trypsin + 3 μg/ml chymotrypsin half-life

| SMILES | half-life [1, 10] | half-life ([1]; FaSSIF only half-life) | MIC VRE ATCC 51575 [2] | MIC VRE CCUG 47775 [2] | MIC VRE ATCC 700221 [3] | MIC C. scindens [4] | MIC L. acidophilus [5] | MIC P. anaerobius [6] | MIC E. lenta [7] | MIC to H. Pylori without EDTA [8] | MIC to H. Pylori with 0.05M EDTA [8] | MIC to H. Pylori without EDTA ([8]; without EDTA) | half-life ([9]; simulated gi fluid) | half-life at 300 μg/ml ([9]; simulated gastric fluid without enzyme, pH 1.4) |
| --- | --- | --- | --- | --- | --- | --- | --- | --- | --- | --- | --- | --- | --- | --- |
| C=C1NC(=O)[C@H](Cc2c[nH]c3ccccc23)NC(=O)[C@H](NC(=O)[C@H](CCCCN)NC(=O)[C@H](C)N)CSC[C@@H](C(=O)N[C@H]2C(=O)N3CCC[C@H]3C(=O)NCC(=O)N[C@H](C(=O)N[C@@H](C)C(=O)N[C@@H](C)C(=O)NC(=CC)C(=O)NCC(=O)N[C@@H]3CSC[C@@H]4NC(=O)[C@H](Cc5ccc(O)cc5)NC(=O)[C@@H](CS/C=C\NC4=O)NC(=O)[C@H](CC(N)=O)NC(=O)[C@H](Cc4ccccc4)NC3=O)CS[C@H]2C)NC(=O)[C@H](CC(C)C)NC1=O [F1A R13A] | 2.17 h | > 12 h | 32 µg/mL (≈ 15.2 µM) | 32 µg/mL (≈ 15.2 µM) | 16 µg/mL (≈ 7.61 µM) | 16 µg/mL (≈ 7.61 µM) | 8 µg/mL (≈ 3.8 µM) | 2 µg/mL (≈ 0.951 µM) | 4 µg/mL (≈ 1.9 µM) | >64 µg/mL | 64 µg/mL | – | – | – |
| CN(C)[C@@H]1C(O)=C(C(N)=O)C(=O)[C@@]2(O)C(O)=C3C(=O)c4c(O)cccc4[C@@](C)(O)[C@H]3C[C@@H]12 [Tetracycline, reference compound] | – | – | – | – | – | – | – | – | – | – | 0.25 µg/mL | 0.5 µg/mL (≈ 1.13 µM) | – | – |
| C=C1NC(=O)[C@H](Cc2c[nH]c3ccccc23)NC(=O)[C@H](NC(=O)[C@H](CCCCN)NC(=O)[C@@H](N)[C@@H](C)CC)CSC[C@@H](C(=O)N[C@H]2C(=O)N3CCC[C@H]3C(=O)NCC(=O)N[C@H](C(=O)N[C@@H](C)C(=O)N[C@@H](CC(N)=O)C(=O)NC(=CC)C(=O)N[C@@H](C)C(=O)N[C@@H]3CSC[C@@H]4NC(=O)[C@H](Cc5ccc(O)cc5)NC(=O)[C@@H](CS/C=C\NC4=O)NC(=O)[C@H](CC(N)=O)NC(=O)[C@H](Cc4ccccc4)NC3=O)CS[C@H]2C)NC(=O)[C@H](CC(C)C)NC1=O [F1I R13N G15A] | > 12 h | > 12 h | 32 µg/mL (≈ 14.5 µM) | >64 µg/mL | 32 µg/mL (≈ 14.5 µM) | 16 µg/mL (≈ 7.26 µM) | 8 µg/mL (≈ 3.63 µM) | 4 µg/mL (≈ 1.82 µM) | 8 µg/mL (≈ 3.63 µM) | >64 µg/mL | 64 µg/mL | – | – | – |
| C=C1NC(=O)[C@H](Cc2c[nH]c3ccccc23)NC(=O)[C@H](NC(=O)[C@H](CCCCN)NC(=O)[C@@H](N)CO)CSC[C@@H](C(=O)N[C@H]2C(=O)N3CCC[C@H]3C(=O)NCC(=O)N[C@H](C(=O)N[C@@H](C)C(=O)N[C@@H](CC(N)=O)C(=O)NC(=CC)C(=O)NCC(=O)N[C@@H]3CSC[C@@H]4NC(=O)[C@H](Cc5ccc(O)cc5)NC(=O)[C@@H](CS/C=C\NC4=O)NC(=O)[C@H](CC(N)=O)NC(=O)[C@H](Cc4ccccc4)NC3=O)CS[C@H]2C)NC(=O)[C@H](CC(C)C)NC1=O [F1S R13N] | > 12 h | > 12 h | >64 µg/mL | >64 µg/mL | 64 µg/mL (≈ 29.6 µM) | 32 µg/mL (≈ 14.8 µM) | 16 µg/mL (≈ 7.4 µM) | 8 µg/mL (≈ 3.7 µM) | 16 µg/mL (≈ 7.4 µM) | >64 µg/mL | >64 µg/mL | – | – | – |
| C=C1NC(=O)[C@H](Cc2c[nH]c3ccccc23)NC(=O)[C@H](NC(=O)[C@H](CCCCN)NC(=O)[C@H](C)N)CSC[C@@H](C(=O)N[C@H]2C(=O)N3CCC[C@H]3C(=O)NCC(=O)N[C@H](C(=O)N[C@@H](C)C(=O)NCC(=O)NC(=CC)C(=O)NCC(=O)N[C@@H]3CSC[C@@H]4NC(=O)[C@H](Cc5ccc(O)cc5)NC(=O)[C@@H](CS/C=C\NC4=O)NC(=O)[C@H](CC(N)=O)NC(=O)[C@H](Cc4ccccc4)NC3=O)CS[C@H]2C)NC(=O)[C@H](CC(C)C)NC1=O [F1A R13G] | 2.07 h | 4.98 h | >64 µg/mL | >64 µg/mL | 32 µg/mL (≈ 15.3 µM) | 32 µg/mL (≈ 15.3 µM) | 16 µg/mL (≈ 7.66 µM) | 4 µg/mL (≈ 1.91 µM) | 16 µg/mL (≈ 7.66 µM) | >64 µg/mL | >64 µg/mL | – | – | – |
| C=C1NC(=O)[C@H](CCSC)NC(=O)[C@H](NC(=O)[C@H](CCCCN)NC(=O)[C@@H](N)[C@@H](C)CC)CSC[C@@H](C(=O)N[C@H]2C(=O)N3CCC[C@H]3C(=O)NCC(=O)N[C@H](C(=O)N[C@@H](C)C(=O)N[C@@H](C)C(=O)NC(=CC)C(=O)NCC(=O)N[C@@H]3CSC[C@@H]4NC(=O)[C@H](Cc5ccc(O)cc5)NC(=O)[C@@H](CS/C=C\NC4=O)NC(=O)[C@H](CC(N)=O)NC(=O)[C@H](Cc4ccccc4)NC3=O)CS[C@H]2C)NC(=O)[C@H](CC(C)C)NC1=O [F1I W4M R13A] | 5.82 h | > 12 h | >64 µg/mL | >64 µg/mL | >64 µg/mL | 32 µg/mL (≈ 15.3 µM) | 32 µg/mL (≈ 15.3 µM) | 8 µg/mL (≈ 3.83 µM) | 16 µg/mL (≈ 7.65 µM) | 64 µg/mL (≈ 30.6 µM) | 64 µg/mL | – | – | – |
| C=C1NC(=O)[C@H](Cc2c[nH]c3ccccc23)NC(=O)[C@H](NC(=O)[C@H](CCCCN)NC(=O)[C@@H](N)[C@@H](C)O)CSC[C@@H](C(=O)N[C@H]2C(=O)N3CCC[C@H]3C(=O)NCC(=O)N[C@H](C(=O)N[C@@H](C)C(=O)NCC(=O)NC(=CC)C(=O)NCC(=O)N[C@@H]3CSC[C@@H]4NC(=O)[C@H](Cc5ccc(O)cc5)NC(=O)[C@@H](CS/C=C\NC4=O)NC(=O)[C@H](CC(N)=O)NC(=O)[C@H](Cc4ccccc4)NC3=O)CS[C@H]2C)NC(=O)[C@H](CC(C)C)NC1=O [F1T R13G] | 1.9 h | > 12 h | 64 µg/mL (≈ 30.2 µM) | 64 µg/mL (≈ 30.2 µM) | 32 µg/mL (≈ 15.1 µM) | 64 µg/mL (≈ 30.2 µM) | 8 µg/mL (≈ 3.77 µM) | 8 µg/mL (≈ 3.77 µM) | 8 µg/mL (≈ 3.77 µM) | >64 µg/mL | >64 µg/mL | – | – | – |
| C=C1NC(=O)[C@H](Cc2c[nH]c3ccccc23)NC(=O)[C@H](NC(=O)[C@H](CCCCN)NC(=O)CN)CSC[C@@H](C(=O)N[C@H]2C(=O)N3CCC[C@H]3C(=O)NCC(=O)N[C@H](C(=O)N[C@@H](C)C(=O)N[C@@H](CC(N)=O)C(=O)NC(=CC)C(=O)NCC(=O)N[C@@H]3CSC[C@@H]4NC(=O)[C@H](Cc5ccc(O)cc5)NC(=O)[C@@H](CS/C=C\NC4=O)NC(=O)[C@H](CC(N)=O)NC(=O)[C@H](Cc4ccccc4)NC3=O)CS[C@H]2C)NC(=O)[C@H](CC(C)C)NC1=O [F1G R13N] | 3.75 h | > 12 h | >64 µg/mL | >64 µg/mL | 32 µg/mL (≈ 15 µM) | 16 µg/mL (≈ 7.5 µM) | 8 µg/mL (≈ 3.75 µM) | 4 µg/mL (≈ 1.88 µM) | 16 µg/mL (≈ 7.5 µM) | >64 µg/mL | >64 µg/mL | – | – | – |
| C=C1NC(=O)[C@H](Cc2c[nH]c3ccccc23)NC(=O)[C@H](NC(=O)[C@H](CCCCN)NC(=O)[C@@H](N)CC(C)C)CSC[C@@H](C(=O)N[C@H]2C(=O)N3CCC[C@H]3C(=O)NCC(=O)N[C@H](C(=O)N[C@@H](C)C(=O)N[C@@H](CC(=O)O)C(=O)NC(=CC)C(=O)NCC(=O)N[C@@H]3CSC[C@@H]4NC(=O)[C@H](Cc5ccc(O)cc5)NC(=O)[C@@H](CS/C=C\NC4=O)NC(=O)[C@H](CC(N)=O)NC(=O)[C@H](Cc4ccccc4)NC3=O)CS[C@H]2C)NC(=O)[C@H](CC(C)C)NC1=O [F1L R13D] | > 12 h | > 12 h | 64 µg/mL (≈ 29.2 µM) | 32 µg/mL (≈ 14.6 µM) | 32 µg/mL (≈ 14.6 µM) | 8 µg/mL (≈ 3.65 µM) | 8 µg/mL (≈ 3.65 µM) | 2 µg/mL (≈ 0.913 µM) | 1 µg/mL (≈ 0.457 µM) | 8 µg/mL (≈ 3.65 µM) | 4 µg/mL | – | > 24 h | – |
| CSCC[C@H](N)C(=O)N[C@@H](CCCNC(=N)N)C(=O)N[C@@H](Cc1ccccc1)C(=O)N[C@@H](C)C(=O)O [Positive Control, NH2-Met-Arg-Phe-Ala-OH, reference compound] (H-MRFA-OH) | – | – | – | – | – | – | – | – | – | – | – | – | – | > 24 h |
